Results taken from ChEMBL document CHEMBL1201862, “PubChem BioAssay data set” (2004).
The source made the active and inactive calls.

Key:
HEK293 [1] = assay: NOD1 signaling inhibitors, primary screen, cell-based, luminescence, uHTS (AID 1578); format: functional; details: Homo sapiens
HEK293 [2] = assay: cells; format: functional, cell-based; details: Homo sapiens
HEK293 [3] = assay: cells; format: functional, cell-based; details: Homo sapiens; remark: listed apart in the source
[4] = molecular target: Nucleotide-binding oligomerization domain-containing protein 2 (Homo sapiens, UniProt Q9HC29); assay: NOD2 signaling inhibitors, cell-based, luminescence, uHTS, HEK293 (AID 1566); format: functional
Chain of Nucleotide-binding oligomerization domain-containing protein 2 (Q9HC29 whole entry, the tested form may be a part): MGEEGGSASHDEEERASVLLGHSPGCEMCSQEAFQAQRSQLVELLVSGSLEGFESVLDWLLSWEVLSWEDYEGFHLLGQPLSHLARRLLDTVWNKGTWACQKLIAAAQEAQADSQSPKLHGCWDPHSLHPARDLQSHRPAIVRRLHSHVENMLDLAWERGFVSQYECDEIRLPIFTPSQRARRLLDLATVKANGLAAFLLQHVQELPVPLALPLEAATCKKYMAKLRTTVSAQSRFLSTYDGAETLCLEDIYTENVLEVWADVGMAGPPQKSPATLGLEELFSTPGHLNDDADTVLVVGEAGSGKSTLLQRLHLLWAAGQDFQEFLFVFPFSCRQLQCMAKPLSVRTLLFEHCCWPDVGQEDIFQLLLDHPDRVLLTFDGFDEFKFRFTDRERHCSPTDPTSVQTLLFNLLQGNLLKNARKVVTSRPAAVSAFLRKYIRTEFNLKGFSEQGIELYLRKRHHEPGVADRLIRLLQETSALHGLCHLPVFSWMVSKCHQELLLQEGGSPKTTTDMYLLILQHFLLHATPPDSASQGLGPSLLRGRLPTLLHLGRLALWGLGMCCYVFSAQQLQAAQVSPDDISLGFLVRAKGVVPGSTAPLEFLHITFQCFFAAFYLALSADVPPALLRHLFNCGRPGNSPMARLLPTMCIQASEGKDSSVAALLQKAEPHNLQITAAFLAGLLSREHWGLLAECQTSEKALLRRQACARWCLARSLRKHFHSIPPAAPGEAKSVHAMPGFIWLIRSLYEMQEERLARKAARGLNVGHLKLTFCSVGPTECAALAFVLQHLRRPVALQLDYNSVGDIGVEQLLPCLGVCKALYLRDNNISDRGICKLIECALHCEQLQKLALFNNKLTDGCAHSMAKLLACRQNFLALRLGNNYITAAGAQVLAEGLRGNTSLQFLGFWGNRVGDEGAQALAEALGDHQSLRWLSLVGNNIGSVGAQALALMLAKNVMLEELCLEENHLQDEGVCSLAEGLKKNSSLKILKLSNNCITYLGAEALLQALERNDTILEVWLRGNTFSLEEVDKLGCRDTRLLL

HEK293 [5] = assay: NOD2 signaling inhibitors in MDP-stimulated cells, cell-based, uHTS, luminescence (AID 2001); format: functional; details: Homo sapiens
HEK293 [6] = assay: cells; format: functional, cell-based; details: Homo sapiens; remark: listed apart in the source
Cytochrome P450 3A4 = Cytochrome P450 3A4 (Homo sapiens, UniProt P08684); details: Potency;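 also: confirmatory qHTS run detecting inhibitors and substrates of CYP3A4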
Chain of Cytochrome P450 3A4 (P08684 whole entry): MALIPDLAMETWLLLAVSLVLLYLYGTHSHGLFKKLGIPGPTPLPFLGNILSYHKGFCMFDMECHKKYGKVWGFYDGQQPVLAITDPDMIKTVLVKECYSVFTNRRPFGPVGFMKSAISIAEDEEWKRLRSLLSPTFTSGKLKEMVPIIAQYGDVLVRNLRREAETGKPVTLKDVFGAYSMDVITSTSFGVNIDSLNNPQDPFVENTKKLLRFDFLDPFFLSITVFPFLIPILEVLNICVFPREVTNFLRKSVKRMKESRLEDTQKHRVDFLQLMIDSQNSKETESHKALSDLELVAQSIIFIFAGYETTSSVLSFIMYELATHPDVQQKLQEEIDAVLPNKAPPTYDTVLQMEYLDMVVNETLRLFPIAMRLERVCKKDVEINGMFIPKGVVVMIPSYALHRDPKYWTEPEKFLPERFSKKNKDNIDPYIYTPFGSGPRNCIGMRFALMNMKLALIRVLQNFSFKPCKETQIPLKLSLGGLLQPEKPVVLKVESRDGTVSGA

[7] = molecular target: Luciferin 4-monooxygenase (Photinus pyralis, UniProt P08659); assay: Counter Screen for Luciferase-based Assay Positives. [Related pubchem assays: 620, 618, 411 ]
Chain of Luciferin 4-monooxygenase (P08659 whole entry): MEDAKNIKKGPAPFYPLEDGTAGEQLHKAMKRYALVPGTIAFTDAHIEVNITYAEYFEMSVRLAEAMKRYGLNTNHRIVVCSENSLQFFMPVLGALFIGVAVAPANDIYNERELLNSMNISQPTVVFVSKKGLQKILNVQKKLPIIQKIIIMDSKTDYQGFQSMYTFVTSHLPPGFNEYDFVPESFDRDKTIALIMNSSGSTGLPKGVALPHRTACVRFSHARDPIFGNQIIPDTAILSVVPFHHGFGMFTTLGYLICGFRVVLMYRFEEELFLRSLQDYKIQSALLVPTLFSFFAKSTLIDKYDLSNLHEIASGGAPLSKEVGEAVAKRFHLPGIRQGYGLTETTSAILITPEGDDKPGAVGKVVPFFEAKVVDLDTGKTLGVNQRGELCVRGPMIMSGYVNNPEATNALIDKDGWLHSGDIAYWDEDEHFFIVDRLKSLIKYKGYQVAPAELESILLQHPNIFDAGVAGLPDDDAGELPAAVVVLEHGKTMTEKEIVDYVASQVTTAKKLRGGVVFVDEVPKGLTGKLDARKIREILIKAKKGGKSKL

HT-1080 = assay: cytotoxicity in HT1080 fibrosarcoma cells, cell-based, fluorescence readout (AID 620); format: functional; details: Homo sapiens
[8] = HEp-2 cell cytotoxicity, dose response, cytotoxicity control for RSV inhibitor project, HTS (AID 2410); format: functional; details: human respiratory syncytial virus
[9] = cytotoxicity in HEK-293T cells, dose response, cytotoxicity control for BCR NF-kB inhibitor project, luminescence, B-cell screen hits (AID 489021); format: functional, cell-based;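 also: HEK-293T cells carrying an NF-kB luciferase reporter; cells exposed to compound for about 14 hours before viability readout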
[10] = inhibitors of firefly luciferase expression or activity, dose response, H4 neuroglioma cells, luminescence (AID 1990); format: functional, cell-based
[11] = Luminescence Cell-Based Dose Response HTS to Identify Inhibitors of 5'UTR Stem-Loop Driven Prion Protein mRNA Translation in H4 Neuroglioblastoma Cells. [Related pubchem assays: 1827 (Project Summary), 1813 (Primary HTS)]; format: functional
[12] = inhibitors of SNCA 5'UTR-driven reporter translation, confirmation, H4 neuroglioma cells, luminescence (AID 1988); format: functional, cell-based
[13] = molecular target: T1, Kappa-type opioid receptor (Homo sapiens, UniProt P41145); format: functional
T1 sequence (P41145 whole entry): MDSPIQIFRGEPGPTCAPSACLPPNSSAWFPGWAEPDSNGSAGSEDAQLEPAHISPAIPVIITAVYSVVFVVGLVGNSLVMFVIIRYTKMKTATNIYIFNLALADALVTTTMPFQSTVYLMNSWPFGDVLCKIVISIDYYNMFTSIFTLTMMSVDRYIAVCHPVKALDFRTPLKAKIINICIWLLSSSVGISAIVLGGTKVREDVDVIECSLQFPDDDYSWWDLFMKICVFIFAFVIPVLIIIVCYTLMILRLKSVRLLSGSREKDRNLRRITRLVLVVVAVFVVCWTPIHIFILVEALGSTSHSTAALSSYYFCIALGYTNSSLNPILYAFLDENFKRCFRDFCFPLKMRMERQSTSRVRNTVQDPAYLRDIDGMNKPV

Beta-galactosidase = Beta-galactosidase (Escherichia coli, UniProt Q8VNN2); format: functional
Chain of Beta-galactosidase (Q8VNN2 whole entry): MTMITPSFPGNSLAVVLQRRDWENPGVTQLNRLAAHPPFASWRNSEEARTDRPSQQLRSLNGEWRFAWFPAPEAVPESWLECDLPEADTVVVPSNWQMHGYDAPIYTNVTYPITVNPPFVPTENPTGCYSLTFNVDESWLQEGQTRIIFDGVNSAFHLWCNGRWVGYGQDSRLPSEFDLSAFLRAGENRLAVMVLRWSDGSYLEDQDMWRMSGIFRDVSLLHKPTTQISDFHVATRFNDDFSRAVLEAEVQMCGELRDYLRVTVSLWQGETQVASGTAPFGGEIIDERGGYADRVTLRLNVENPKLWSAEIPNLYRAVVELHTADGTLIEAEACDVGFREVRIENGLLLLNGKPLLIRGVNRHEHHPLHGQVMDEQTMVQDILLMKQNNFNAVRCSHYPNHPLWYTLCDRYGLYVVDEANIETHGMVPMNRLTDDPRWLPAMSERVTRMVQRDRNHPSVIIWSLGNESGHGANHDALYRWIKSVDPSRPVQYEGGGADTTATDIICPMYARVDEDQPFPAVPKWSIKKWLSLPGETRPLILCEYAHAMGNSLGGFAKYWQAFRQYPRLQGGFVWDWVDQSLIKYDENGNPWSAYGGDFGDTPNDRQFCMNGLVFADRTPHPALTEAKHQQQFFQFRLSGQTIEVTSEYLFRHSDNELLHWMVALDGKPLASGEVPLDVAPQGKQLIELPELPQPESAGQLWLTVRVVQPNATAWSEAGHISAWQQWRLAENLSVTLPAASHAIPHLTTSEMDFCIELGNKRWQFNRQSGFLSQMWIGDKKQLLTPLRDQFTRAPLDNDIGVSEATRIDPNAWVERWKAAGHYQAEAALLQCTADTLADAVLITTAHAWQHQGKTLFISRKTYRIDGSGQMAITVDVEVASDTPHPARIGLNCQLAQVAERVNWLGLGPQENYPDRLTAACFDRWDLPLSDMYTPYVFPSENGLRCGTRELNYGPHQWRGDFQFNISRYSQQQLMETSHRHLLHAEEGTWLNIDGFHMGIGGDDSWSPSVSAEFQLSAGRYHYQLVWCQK

[14] = molecular target: T2, Sphingosine 1-phosphate receptor 4 (Homo sapiens, UniProt O95977); assay: Fluorescence dose response cell-based high throughput screening assay for antagonists of the Sphingosine 1-Phosphate Receptor 4 (S1P4). [Related pubchem assays: 1524 (Confirmation in triplicates.), 1510 (Primary screen.)]; format: functional
T2 sequence (O95977 whole entry): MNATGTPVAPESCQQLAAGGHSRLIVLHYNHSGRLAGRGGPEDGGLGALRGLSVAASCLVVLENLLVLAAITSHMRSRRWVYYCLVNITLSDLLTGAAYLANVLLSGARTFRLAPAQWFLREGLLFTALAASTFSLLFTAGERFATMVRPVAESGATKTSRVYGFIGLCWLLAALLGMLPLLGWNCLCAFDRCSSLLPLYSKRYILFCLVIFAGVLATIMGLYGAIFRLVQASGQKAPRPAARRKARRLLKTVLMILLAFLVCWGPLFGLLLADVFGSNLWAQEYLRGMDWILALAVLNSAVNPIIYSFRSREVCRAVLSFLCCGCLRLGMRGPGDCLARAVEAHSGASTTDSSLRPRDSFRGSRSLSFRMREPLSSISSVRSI

[15] = molecular target: T1, Kappa-type opioid receptor; format: functional; remark: listed apart in the source
[16] = molecular target: Sphingosine 1-phosphate receptor 1 (Homo sapiens, UniProt P21453); format: functional;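 also: Tango beta-arrestin reporter U2OS cells stimulated with S1P near its EC80; inhibitor potency meaning antagonism of receptor activation by the natural agonist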
Chain of Sphingosine 1-phosphate receptor 1 (P21453 whole entry): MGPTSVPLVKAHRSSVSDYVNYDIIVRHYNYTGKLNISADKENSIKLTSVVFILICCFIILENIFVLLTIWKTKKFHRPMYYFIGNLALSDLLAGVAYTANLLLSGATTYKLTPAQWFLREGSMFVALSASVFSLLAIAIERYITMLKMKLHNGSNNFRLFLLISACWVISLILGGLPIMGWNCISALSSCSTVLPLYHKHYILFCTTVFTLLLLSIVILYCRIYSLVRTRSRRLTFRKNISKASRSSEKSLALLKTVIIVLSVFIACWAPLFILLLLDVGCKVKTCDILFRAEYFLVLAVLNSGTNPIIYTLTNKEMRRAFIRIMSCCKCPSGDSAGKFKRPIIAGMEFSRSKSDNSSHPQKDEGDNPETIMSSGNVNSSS

INS1 = assay: beta cell apoptosis inhibitors, cytokine rescue, dose response, luminescence, retest (AID 449756); format: functional, cell-based; details: Rattus norvegicus;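 also: cell death triggered by IL-1 beta plus TNF-alpha plus IFN-gamma mixture; protective hits raise ATP signal compared with cytokine alone wells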
Melanocortin receptor 4 = Melanocortin receptor 4 (Homo sapiens, UniProt P32245); assay: MC4R antagonist potency on cAMP, dose response, cell-based, TR-FRET, biased antagonists (AID 602298); format: functional;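 also: antagonist potency against agonist-stimulated cAMP production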
Chain of Melanocortin receptor 4 (P32245 whole entry): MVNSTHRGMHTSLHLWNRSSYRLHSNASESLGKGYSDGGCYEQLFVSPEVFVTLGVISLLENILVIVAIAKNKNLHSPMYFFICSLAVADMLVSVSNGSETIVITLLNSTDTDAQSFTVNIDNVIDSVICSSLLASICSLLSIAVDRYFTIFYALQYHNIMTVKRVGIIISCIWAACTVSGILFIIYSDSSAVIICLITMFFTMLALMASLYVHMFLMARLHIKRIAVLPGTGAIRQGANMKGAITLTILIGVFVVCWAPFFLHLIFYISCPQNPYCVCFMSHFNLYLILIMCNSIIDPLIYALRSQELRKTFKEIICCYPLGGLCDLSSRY

[17] = nonselective inhibitors of cellular cAMP signaling, dose response, counter-screen for MC4R biased antagonist project, cell-based, TR-FRET cAMP detection (AID 602305); format: functional;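 also: U2OS cells stimulated with forskolin near its EC80 as the cAMP inducer; potency is for inhibition of forskolin-stimulated cAMP signaling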
[18] = molecular target: T3, Tyrosine-protein phosphatase non-receptor type 7 (Homo sapiens, UniProt P35236); assay: SAR analysis of chemical inhibitors of HePTP using a Fluorescent assay - Set 2. [Related pubchem assays (depositor defined):AID1059, AID1077, AID1661, AID2085, AID521]; format: functional
T3 sequence (P35236 whole entry): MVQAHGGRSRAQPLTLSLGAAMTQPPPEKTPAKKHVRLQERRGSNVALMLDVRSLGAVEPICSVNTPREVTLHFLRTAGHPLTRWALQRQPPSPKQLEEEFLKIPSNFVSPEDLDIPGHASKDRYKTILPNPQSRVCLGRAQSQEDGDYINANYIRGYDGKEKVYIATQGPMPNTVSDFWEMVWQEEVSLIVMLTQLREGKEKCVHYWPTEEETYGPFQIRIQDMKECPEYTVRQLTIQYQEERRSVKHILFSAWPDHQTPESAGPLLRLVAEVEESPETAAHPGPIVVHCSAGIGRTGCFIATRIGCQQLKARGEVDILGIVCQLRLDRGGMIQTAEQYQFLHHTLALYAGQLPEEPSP

[19] = molecular target: Dual specificity protein phosphatase 3 (Homo sapiens, UniProt P51452); assay: SAR VHR1 Fluorescent Assay for In Vitro dose response studies Set 2. [Related pubchem assays (depositor defined):AID1654, AID1661, AID1878]; format: functional
Chain of Dual specificity protein phosphatase 3 (P51452 whole entry): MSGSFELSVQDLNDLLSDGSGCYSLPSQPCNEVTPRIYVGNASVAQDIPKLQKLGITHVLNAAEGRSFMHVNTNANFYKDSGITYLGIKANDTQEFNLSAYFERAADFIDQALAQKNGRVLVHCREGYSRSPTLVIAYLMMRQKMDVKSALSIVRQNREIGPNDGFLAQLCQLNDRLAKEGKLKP

Structure (SMILES): CCOc1ccccc1C(=O)N1CCN(C(c2ccccc2)c2ccccc2)CC1
- EC50 (HEK293 [1]): 14.3 µM (active)
- IC50 (HEK293 [2]): 15.7 µM (active)
- IC50 (HEK293 [3]): > 20 µM (inactive)
- EC50 [4]: 13 µM (active)
- IC50 (HEK293 [5]): > 20 µM (inactive)
- IC50 (HEK293 [6]): > 20 µM (inactive)

Structure (SMILES): CCOC(=O)CC(SP(=O)(OC)OC)C(=O)OCC (stereo not drawn)
- AC50 (Cytochrome P450 3A4): 25.1 µM (inconclusive)

Structure (SMILES): CC(=O)Nc1ccc(OC(=O)N2CCCCC2)cc1
- EC50 [7]: 3.67 µM (active)
- EC50 (HT-1080): > 50 µM (not active)

Structure (SMILES): Cn1cnnc1Sc1cc(N2CCN(S(=O)(=O)c3ccc(Cl)c(Cl)c3)CC2)ccc1[N+](=O)[O-]
- CC50 [8]: > 50 µM (active)
- IC50 (cells): 10.7 µM (active)

Structure (SMILES): CCC(=O)N1c2ccccc2[C@@H](N(C(C)=O)c2ccccc2)C[C@H]1C
- IC50 [9]: > 80 µM (inactive)

Structure (SMILES): COc1ccc(C(=O)/C(=C\c2ccco2)N2C=CC=CC2=C(C#N)C#N)cc1
- EC50 [10]: 7.21 µM (inconclusive)
- EC50 [11]: 12.3 µM (active)
- EC50 [12]: 0.141 µM (active)
- IC50 [13]: 5.93 µM (active)
- EC50 (Beta-galactosidase): > 31.5 µM (inactive)
- IC50 [14]: 2.01 µM (active)
- IC50 [15]: 18 µM
- IC50 [16]: 9.37 µM (active)
- AC50 (INS1): 5.51 µM (active)
- IC50 (Melanocortin receptor 4): > 64.6 µM (inactive)
- IC50 [17]: > 64.6 µM (inactive)

Structure (SMILES): NS(=O)(=O)c1ccc(NC(=S)N2CCN(Cc3ccc(Cl)c(Cl)c3)CC2)cc1
- EC50 [10]: 34.5 µM (active)
- EC50 [11]: > 120 µM (not active)
- EC50 [12]: > 120 µM (not active)
- IC50 [18]: 48.4 µM (active)
- IC50 [19]: > 100 µM (inactive)
